Legend:
[1] = test system: secretion of apo B in Hep G2 cells; assay: Inhibition of the secretion of apo B in the Hep G2 human cell line (ELISA); format: cell-based; settings: HepG2, 24 hours incubation, sandwich ELISA for human apo B, read-out: IC50, concentration which produces a 50% inhibition of the secretion of apo B in the Hep G2 cells
Procedure: Analysis of the secretion of apo B in the Hep G2 human cell line:
The activity of a compound according to the invention may be evaluated by measuring the inhibition of the secretion of apo B in Hep G2 cells.
The Hep G2 cells (ECACC—number 85011430) are used as a model in the study of the in vitro hepatic secretion of lipoproteins (Dixon J. and Ginsberg H.—J. Lipid. Res.—1993, 34:167-179).
The Hep G2 cells are cultured in a Dulbecco's modified Eagle medium containing 10% foetal calf serum (DMEM and FCS—Gibco) in 96-well plates in an atmosphere of 5% carbon dioxide for 24 hours (about 70% confluence).
The test compounds are dissolved at 2 or 10 mM in dimethyl sulphoxide (DMSO). Serial dilutions (1:3.16) are performed in DMSO and added (1:200—Robot Multim Beckman) to the growth medium (200 microlitres) and finally incubated for 24 hours in the various wells containing the Hep G2 cells.
The 24-hour culture supernatant diluted to 1:5 (phosphate-buffered saline: PBS containing 1% bovine serum albumin) is tested according to a sandwich ELISA method which is specific for human apo B.
The results are expressed in terms of IC50, namely the concentration which produces a 50% inhibition of the secretion of apo B in the Hep G2 cells.

[2] = target: T1, microsomal triglyceride transfer protein (MTP) (Mesocricetus auratus, UniProt P55158); assay: Inhibition of the activity of MTP (transfer of labelled triglyceride, SPA); format: biochemical, golden hamster; settings: hamster liver MTP, [3H]-trioleine donor liposomes, biot-LDL acceptor, 18-24 hours at 37° C.; read-out: IC50, concentration which allows a 50% inhibition of MTP
T1 construct: The supernatant containing the soluble MTP is dialysed; from tissue; host or cells: golden hamster liver microsomes
T1 sequence (P55158 19-895): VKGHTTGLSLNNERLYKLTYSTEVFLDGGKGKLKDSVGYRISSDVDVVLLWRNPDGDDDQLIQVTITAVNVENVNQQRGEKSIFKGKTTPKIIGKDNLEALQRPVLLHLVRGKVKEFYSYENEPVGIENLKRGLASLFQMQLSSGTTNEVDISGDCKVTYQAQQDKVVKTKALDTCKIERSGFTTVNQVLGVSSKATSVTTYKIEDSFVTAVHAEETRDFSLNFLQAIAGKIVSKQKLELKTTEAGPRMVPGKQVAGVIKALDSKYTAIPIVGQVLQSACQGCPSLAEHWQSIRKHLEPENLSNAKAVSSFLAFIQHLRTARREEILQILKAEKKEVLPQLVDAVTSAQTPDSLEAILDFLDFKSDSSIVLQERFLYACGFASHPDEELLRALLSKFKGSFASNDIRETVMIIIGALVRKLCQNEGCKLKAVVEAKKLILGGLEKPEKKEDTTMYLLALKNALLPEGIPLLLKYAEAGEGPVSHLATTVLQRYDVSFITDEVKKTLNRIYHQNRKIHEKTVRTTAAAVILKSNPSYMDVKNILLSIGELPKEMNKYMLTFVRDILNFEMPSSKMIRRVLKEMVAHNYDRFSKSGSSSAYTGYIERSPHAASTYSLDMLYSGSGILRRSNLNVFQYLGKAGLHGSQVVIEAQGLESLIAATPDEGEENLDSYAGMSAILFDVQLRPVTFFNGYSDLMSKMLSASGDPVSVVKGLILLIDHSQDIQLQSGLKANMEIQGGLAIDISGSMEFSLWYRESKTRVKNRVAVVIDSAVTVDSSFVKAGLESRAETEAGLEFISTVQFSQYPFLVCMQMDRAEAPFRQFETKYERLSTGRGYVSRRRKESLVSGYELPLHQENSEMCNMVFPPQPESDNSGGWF
Procedure: Analysis of th inhibition of the activity of MTP The inhibition of the activity of microsomal triglyceride transfer protein MTP) was tested using the following protocal.
The inhibition of the activity of MTP with a compound may be quantified by observing the inhibition of the transfer of a labeled triglyceride, from a donor particle to an acceptor particle, in the presence of MTP. The procedure for preparing MTP is based on the method by Wetterau and Zilversmit (Biochem. Biophys. Acta (1986) 875 610). A few grams of golden hamster liver are taken and then rinsed several times in a 250 mM sucrose solution at 0° C. All the following steps proceed at +4° C. A 50% homogenate in 250 mM sucrose is prepared using a Teflon mill and then centrifuged for 10 minutes at 10 000×g at +4° C. The supernatant is then centrifuged at 105 000×g for 75 minutes at +4° C. The supematant is removed and the microsomal pellet is taken up in 3 ml (per gram of starting liver) of 150 mM pH 8.0 Tris/HCl. 1 ml aliquot fractions are stored at −80° C. until use.
After thawing a fraction of microsomes (1 ml), 12 ml of refrigerated 50 mM Tris/HCl, 50 mM KCl, 5 mM MgCl2, pH 7.4 buffers and 1.2 ml of deoxycholate (0.54% in water) are added. After incubating for 30 minutes at +4° C. with gentle agitation, the suspension is centrifuged at 105 000×g for 75 minutes. The supernatant containing the soluble MTP is dialysed against 150 mM Tris/HCl, 40 mM NaCl, 1 mM EDTA, 0.02% sodium azide, pH 7.4 buffer (5 times one litre over 2-3 days). […]
The acceptor particles are biotinylated low-density lipoproteins (biot-LDL). […] After incubating for 18-24 hours at 37° C. the reaction is quenched by adding 100 μl of Amersham SPA (Scintillation Proximity Assay) beads coupled to steptavidin and the radioactivity is counted using a Top Count (Packard) at least one hour later. The inhibition of the transfer of triglycerides by a compound is reflected by a reduction in the radioactivity transferred. The percentage of inhibition for a given compound is determined relative to controls which contain no compounds in the reaction mixture. […]

IC50 [1] [nM] | melting point [°C] | IC50 [2] [nM] | SMILES
3 | 170 | 65 | Cc1cccc(CN2CCC(NC(=O)c3ccccc3-c3ccc(C(F)(F)F)cc3)CC2)n1 [A-5, 1-[(6-methyl-2-pyridyl)methyl]-4-[(4′-trifluoromethyl-2-biphenyl)carbonylamino]-piperidine]
74 |  | 84 | Cc1ncccc1CN1CCC(NC(=O)c2ccccc2-c2ccc(C(F)(F)F)cc2)CC1 [A-7, 1-[(2-methyl-3-pyridyl)methyl]-4-[(4′-trifluoromethyl-2-biphenyl)carbonylamino]-piperidine]
2 | 210 | 26 | O=C(NC1CCN(Cc2ccc3ccccc3n2)CC1)c1ccccc1-c1ccc(C(F)(F)F)cc1 [A-8, 1-(2-quinolylmethyl)-4-[(4′-trifluoromethyl-2-biphenyl)carbonylamino]-piperidine]
